One compound from paper PMC10726920 (Cancer Medicine, 2023) can be followed below.

The subject of the test is relapsed/refractory acute lymphoblastic leukemia. As to the kind of experiment: Response (modified IWG criteria) and overall survival, Phase II study NCI-9775. The format is in vivo, human. Here is the method: Evaluable patients for response include all patients who had measurable disease present at baseline, began treatment, and had their disease re‐evaluated. Response was assessed by bone marrow aspirates and biopsies performed every 2 months (mandated at the end of Cycle 2, Cycle 4, and Cycle 6). The best responses were captured as overall responses at any time point. Response was evaluated based on modified response criteria by the International Working Group (IWG) recommendations for acute myeloid leukemia (Table S1).[33]
This was a phase II trial designed using a Simon design with an interim analysis to evaluate efficacy. Efficacy (success) was defined as a complete response (CR or CR incomplete (i)). All patients meeting the eligibility criteria who signed a consent form and began treatment were deemed evaluable for toxicity. […] Thus, this regimen was to be considered ineffective if the success rate was 10% or less (null hypothesis), while the smallest success rate that would warrant subsequent studies was 30% (i.e., alternate research hypothesis). With a maximum of 26 evaluable patients, this trial had 85% power to detect a CR/CRi rate of 30% or greater (vs. 10% or less) with a one‐sided Type I error of 0.09. This trial was designed with a futility analysis after enrollment of 11 patients; if there were one or fewer successes observed in these first 11 patients, the regimen would be considered ineffective, and the study terminated. If two or more successes were observed, the enrollment would continue to a total of 26 evaluable patients. In the final analysis, if five or more of these 26 evaluable patients had achieved a CR or CRi, this would be considered sufficient evidence of promising activity in this patient population. Otherwise, if four or fewer CR/CRi events were observed, this regimen would not warrant further evaluation in this population.
The primary endpoint was the proportion of successes, which was estimated by the number of successes divided by the total number of evaluable patients. Secondary endpoints of duration of response (CR or CRi) and overall survival (OS) were evaluated using Kaplan–Meier techniques; the frequency of proceeding to allogeneic stem cell transplant after achieving response and adverse events (AEs), as evaluated using reported the NCI Common Terminology Criteria for Adverse Events (CTCAE) version 4.0, were presented using descriptive statistics.

Values joined by “and” are separate entries in the source; they are usually repeats but may differ in a detail not shown here. Identical values can stand only once.

For the compound `CC(C)n1nc(-c2ccc3oc(N)nc3c2)c2c(N)ncnc21` [sapanisertib], the “CR or CRi” value (3 mg daily 21 of 28 days) was “No patient”. Besides, the Median survival (51.0‐NA 95% CI) was found to be 62 days. Also, for the setting “in vivo”, the “best response stable disease, patients” value was 2 patients and 3 patients; the “best response stable disease, percent of patients” value was 12.5% and 19%; the “disease progression, patients” value came out at 6 patients; the “disease progression, percent of patients” value is recorded as 38%. In addition, for the setting “in vivo”, the “not evaluable because of early discontinuation, patients” value stood at 7 patients and the “not evaluable because of early discontinuation, percent” value is given as 44%.
